Patent US20220339257A1, “METHODS TO INCREASE THE SENSITIVITY AND REVERSING THE RESISTANCE TO DRUGS” (Biomarker Strategies, LLC, priority 2019, published 2022)
Structures can show the parent of a compound that is named as a salt.

Columns and labels:
Type in all cases: cell-based
[1] = test system: A-253 cells; experiment: Western blot of protein biomarkers; conditions: spermidine (50 μM)+GM-CSF (50 ng/mL)
Procedure: (§1) MTA and EM effects on protein biomarker expression were measured by western blotting. For the assay cell lines (Ca9-22, PE/CA-PJ15, HTB-38, HPAF-II, CAL27, BICR-16, A-253, Calu-6, PC-9, H1838, RPMI-7951 and A7) were cultured and treated with doses of MTAs alone, EMs alone and in combination and then lysed for protein analysis. This method can readily be conducted under adherent or suspension conditions, manually or on automated instruments, such as SnapPath. A total of 0.3×10^6 cells per well were seeded in 6 well plates with 10% FBS-containing media and incubated for 24 hours. Cells were then treated with MTA and/or EM concentrations for 24 hours. For total protein extraction, briefly, each sample media was collected, and wells were washed with HMS, and the wash was combined with its respective media collection. Cells were then detached using Accutase solution and again collected in its respective sample media and another HMS well wash and collection was performed. All cell solutions were centrifuged, washed with ice-cold PBS, and centrifuged again. Cell pellets were lysed in 250 μL of ice-cold 1× lysis buffer with protease and phosphatase inhibitor cocktails and incubated for 10 minutes on ice. Lysates were clarified with a centrifugation (14,000 rpm) for 10 minutes at 4° C. Cell lysates were quantified using Bio-Rad DC Protein Assay (Bio-Rad Cat. #5000116).
(§2) For all western blots, an equal amount of protein (3-5 μg) was loaded into SDS-polyacrylamide gels (Mini-Protean TGX Precast Gel; Bio-Rad, e.g. 7.5%, Cat. #4561024; 10%, Cat. #4561035; 12%, Cat. #4561045; or 4-15%, Cat. #4561085). Proteins were separated at 215V for at least 30 minutes in 1× Tris/Glycine/SDS buffer (Bio-Rad Cat. #1610772) and transferred to PVDF membranes using a Trans-Blot Turbo (Bio-Rad Cat. #1704155) for 7 minutes in transfer buffer (Trans-Blot Turbo Transfer Kit, Bio-Rad Cat. #1704273). Blots were blocked at room temperature for 1 hour with 5% non-fat dry milk in tris-buffered saline with Tween 20 (TBST; 15 mM Tris-HCl, pH 7.5, 200mMNaCl and 0.1% Tween 20). Membranes were incubated with primary antibodies at 4° C. overnight and at room temperature for 1 hour the next day; all primary antibodies were diluted following manufacturer's specifications in TBST with either 5% BSA or 5% non-fat dry milk. Membranes were washed in TBST for 5 minutes, three times, and incubated with HRP-conjugated secondary antibodies diluted 1:5000 in TBST with 5% non-fat dry milk at room temperature for 1 hour (anti-rabbit IgG, Bio-Rad Cat. #1706515; or anti-mouse IgG, Bio-Rad Cat. #1706516). Membranes were then washed in TBST for 10 minutes, three times, and target proteins were identified using Clarity Western ECL Substrate (Bio-Rad Cat. #1705061) on autoradiography film (GenHunter Cat. #B581, Nashville, Tenn., USA). Other assay types, such as Luminex multiplexed immunoassays, ICC, IHC, flow cytometry, etc. can be used readily.

[2] = test system: H1975 (EGFR-double mutant line); experiment: MTT cell survival assay; conditions: erlotinib 14 μM alone; H1975; 72 hours
Procedure: Cells (10^4 cells/well) were grown in 96-well plates and exposed for 72 hours to different doses of erlotinib, alone or in combination with EM2. The percentage of cell survival was determined using the 3-(4, 5-dimethylthiazol-2-yl)-2, 5-diphenyltetrazolium bromide (MTT). Single drug alone and vehicle were kept as controls.

[3] = test system: panel of cell lines that included NSCLC, HNSCC, melanoma, and CRC; experiment: WST8 in vitro sensitivity to MTAs with and without EM
Procedure: Day 1: cells were harvested cells from flask (4 mL accutase for T175 for 3-5 minutes), and spin down for 5 mins at 1200 rpm. The supernatant was poured off, and the pellet gently resuspended in 1 mL media. Countess counts were performed, and the cells were diluted in media (10% FBS). With multi-channel pipette, 2500 cells were seeded in 100 uL of media (10% FBS) in each well of 96 well plate. The cells were let to adhere and grow for 24 hours. Day 2: serial drug dilutions of MTAs+/−EMs at 5× of concentrations (as done above) were performed in media (10% FBS). 20 uL of media form each well of the 96 well plate (80 uL media left in wells) was removed, and 20 uL of appropriate 5× drug dilutions was added to each respective well (for a 1× conc). The cells were incubated with drug for 72 hours in 37C incubator. Day 5: 10 uL of WST-8 reagent was added to each well of the 96 well plate and mixed gently. the plates were incubated up to 4 hours at 37C in dark, and absorbance readings were taken at […] and 600 nm wavelengths at 1, 2, 3 and 4h, until control absorbance levels were 1.5-2.0).
We used a panel of cell lines that included NSCLC, HNSCC, melanoma, and CRC. These cell lines are a good model system harboring similar (epi)genetic changes found in patients' tumors. We used the WST8 assay to determine the in vitro sensitivity to various MTAs with and without EM1.

[4] = test system: Ca-922 cell line; experiment: HoPI live cell staining; parameters: concentration or dose not given beside the values; conditions: single agent, 24 hours
Description: (§3) A double stain of Hoechst 33342 and propidium iodide allows for the determination of cell viability with high specificity and low background noise, as compared to trypan blue staining. Hoechst 33342 is a cell permeable blue fluorescent nuclear stain which will stain all cell types. Propidium iodide is a cell impermeable red fluorescent nuclear stain that will only bind to the nuclei of cells with compromised membranes (dead cells). The staining can be performed rapidly on live cell suspensions within 15 minutes. 25 uL of 4× Hoechst 33342 Solution (40 ug/mL) and 25 uL of 4×Propidium Iodide Solution are added to 50 uL of cell suspension. The suspension was gently mixed 10 times and 50 uL was immediately transferred to a microfluidic cell counting chip. A 365 nm LED was used to excite both Hoechst 33342 and propidium iodide. Images of the cells were captured using a 10× objective lens on an Olympus microscope using a Canon EOS 6D camera using an ISO of 800 and an exposure of 2 seconds; both JPEG and RAW images were saved for analysis. The blue channel was used to measure the total number of cells and the red channel was used to measure the number of dead cells. Cell counting was performed automatically by the Image Pro software (Media Cybernetics, Inc).
MTA and EM effects on apoptosis were measured by Hoechst-Propidium Iodide staining (HoPI). For the assay, cells were seeded in 6-well plates at 400K cells per well, in 2 mL of 10% FBS-containing media and incubated for 24 hours. At 24 hours, a 1 nM to […] range of MTA and/or 1 ng/mL to 1 mg/mL range of EM doses was added and incubated for 24 hours. After 24 hours incubation respective cells' media was collected, added the 1× HBSS wash from the plate in the respective tube. Adherent cells were detached by treating with Accutase for 6 minutes and collected in respective tubes. All samples were centrifuged for 5 minutes at 1200 RPM. The cell pellets were resuspended in PBS and centrifuged again for 5 minutes at 1200 RPM. Cell pellets were resuspended in 200 uL of PBS and mixed properly to get single cell suspension. 50 uL of cell suspension was added into separate tubes having 10 uL of a 2× HOPI solution (20 ug/mL Hoechst 33342 and 20 ug/mL propidium iodide solution) to get a final concentration of Hoechst 33342 and propidium iodide to […]. Make up the volume to 100 uL with 40 uL of PBS. Samples were mixed thoroughly for even cell staining and the microfluidsic chip wells were each filled with 10 uL of sample. Chips were then incubated in the dark for 20 minutes. A 365 nm LED was used to excite both Hoechst 33342 and propidium iodide as they were visualize under a microscope. Cell images were captured using a 10× objective lens on an Olympus microscope using a Canon EOS 6D camera with an ISO of 800 and an exposure of 2 seconds; both JPEG and RAW images were saved for analysis. The blue channel was used to measure the total number of cells and the red channel was used to measure the number of dead cells. For image analysis, a copy of the image was created and converted directly into an 8-bit gray scale image. A threshold was placed on the image to create a binary mask; the threshold level was 20 intensity units out of 255 intensity units. Next, a particle analysis algorithm was applied to the binary mask and a set of cellular regions (between 100 to 800 cellular regions per image) was created. The original image was then split into red, green and blue channels. The area, mean intensity, standard deviation of the mean intensity, minimum intensity, maximum intensity and perimeter were measured for each cellular region in the red channel and also in the blue channel. The green channel was discarded. To discern between live and dead cells, the maximum intensity in the red channel was used with a threshold of 100 intensity units. Double plots were created using the intensity of the blue channel (X-axis) and the intensity of the red channel (Y-axis). […]

[5] = test system: RPMI-1975; experiment: HoPI live cell staining; conditions: single agent, 24 hours
Description: as §3
MTA and EM effects on apoptosis were measured by Hoechst-Propidium Iodide staining (HoPI). For the assay, cells were seeded in 6-well plates at 400K cells per well, in 2 mL of 10% FBS-containing media and incubated for 24 hours. At 24 hours, a 1 nM to […] range of MTA and/or 1 ng/mL to 1 mg/mL range of EM doses was added and incubated for 24 hours. After 24 hours incubation respective cells' media was collected, added the 1× HBSS wash from the plate in the respective tube. Adherent cells were detached by treating with Accutase for 6 minutes and collected in respective tubes. All samples were centrifuged for 5 minutes at 1200 RPM. […] The area, mean intensity, standard deviation of the mean intensity, minimum intensity, maximum intensity and perimeter were measured for each cellular region in the red channel and also in the blue channel. […]

[6] = test system: PE/CA-PJ15 cells; experiment: Western blot of protein biomarkers; conditions: spermidine (50 μM)+IL-12 (50 ng/mL)
Procedure: as §1, §2

Molecule: granulocyte-macrophage colony-stimulating factor [EM10]
- Ki67 expression ([1]; compared to both MTA and EM alone): enhanced reduction in Ki67 expression
- LC3II expression ([1]; compared to either alone): LC3II upregulation
- p62 expression ([1]; compared to either alone): reduction in p62

Molecule: C#Cc1cccc(Nc2ncnc3cc(OCCOC)c(OCCOC)cc23)c1 [erlotinib, Erlotinib hydrochloride, reference compound]
- cell survival (MTT), effect of erlotinib alone [2]: absence of effect

Molecule: interleukin 6 [EM4]
- response enhancement (in vitro sensitivity to various MTAs with and without EM, WST8) [3]: no, minimal and strong response enhancement

Molecule: transforming growth factor-beta-1 [EM3]
- response enhancement (in vitro sensitivity to various MTAs with and without EM, WST8) [3]: no, minimal and strong response enhancement

Molecule: C=CC(=O)Nc1cc(Nc2nccc(-c3cn(C)c4ccccc34)n2)c(OC)cc1N(C)CCN(C)C [osimertinib, Osimertinib, reference compound]
- reduction in the number of live cells (HoPI) [4]: 41%

Molecule: COc1ncc(-c2ccc3nccc(-c4ccnnc4)c3c2)cc1NS(=O)(=O)c1ccc(F)cc1F [GSK458, Omipalisib, reference compound]
- reduction in live cells (HoPI) [5]: 30%
- reduction in the number of live cells (HoPI) [4]: 22%

B1: interleukin 12 (protein, UniProt P29459 23-219; P29460 23-328, looked up)
Interleukin-12 subunit alpha: RNLPVATPDPGMFPCLHHSQNLLRAVSNMLQKARQTLEFYPCTSEEIDHEDITKDKTSTVEACLPLELTKNESCLNSRETSFITNGSCLASRKTSFMMALCLSSIYEDLKMYQVEFKTMNAKLLMDPKRQIFLDQNMLAVIDELMQALNFNSETVPQKSSLEEPDFYKTKIKLCILLHAFRIRAVTIDRVMSYLNAS
Interleukin-12 subunit beta: IWELKKDVYVVELDWYPDAPGEMVVLTCDTPEEDGITWTLDQSSEVLGSGKTLTIQVKEFGDAGQYTCHKGGEVLSHSLLLLHKKEDGIWSTDILKDQKEPKNKTFLRCEAKNYSGRFTCWWLTTISTDLTFSVKSSRGSSDPQGVTCGAATLSAERVRGDNKEYEYSVECQEDSACPAAEESLPIEVMVDAVHKLKYENYTSSFFIRDIIKPDPPKNLQLKPLKNSRQVEVSWEYPDTWSTPHSYFSLTFCVQVQGKSKREKKDRVFTDKTSATVICRKNASISVRAQDRYYSSSWSEWASVPCS
notes: enhancer molecule, cytokine purchased from Sigma
- p62 expression [6]: increased expression
- LC3II over LC3I expression ([6]; 24 hours, compared to either alone): marked increase in LC3II over LC3I expression
